# Measured values as given in paper PMC10708537, “Tetrahydrocurcumin Derivatives Enhanced the Anti-Inflammatory Activity of Curcumin: Synthesis, Biological Evaluation, and Structure–Activity Relationship Analysis” (Molecules, 2023).
# “Also recorded” adds a separate entry of the source. Where two headings read alike, the source gives them in different places.
# Key:
# [1] = system: IL-6; assay: LPS-induced IL-6 production in peritoneal macrophages (ELISA); format: cell-based, C57BL/6 mice
# Experimental: (§1) Peritoneal macrophages were obtained by washing the peritoneal cavities of C57B1/6 mice five days after intraperitoneal instillation of 2 mL of 3% thioglycollate. Macrophages were seeded in RPMI containing 10% FCS at 2 × 10^5 cells/well in 96-well plates and cultured for 2 h at 37 °C under a 5% CO2 atmosphere. Adherent cells were pretreated with the compounds (30 μM) 1 h before stimulation with LPS (10 ng/mL). For dose–response experiments, compounds were used at concentrations of 1, 3, 10, and 30 μM. Supernatants were collected 6 h after LPS stimulation. Control and experimental treatments were performed in the presence of 0.5% DMSO, as the compounds were solubilized in this solvent. The concentrations of TNF-α, IL-6, and PGE2 were determined by ELISA (R&D System) following the manufacturer’s protocol.
# (§2) Results from the cytokine measurements and cytotoxicity assays were analyzed using the statistical software package GraphPad Prism 9.4.0. All data are presented as the mean ± S.E.M. Statistical analysis was performed by Student’s t-test. The differences between samples were considered significant when p < 0.05. The 50% inhibitory concentration (IC50) was calculated by adjusting a sigmoidal dose–response curve following the standard procedure in GraphPad Prism 5.
# [2] = system: PGE2; assay: LPS-induced PGE2 production in peritoneal macrophages (ELISA); format: cell-based, C57BL/6 mice; conditions: 30 μM, LPS 10 ng/mL, 6 h (Figure 6)
# Experimental: as §1
# [3] = system: macrophages from the peritoneal cavities of C57BL/6 mice; assay: MTT cytotoxicity assay on macrophages; format: cell-based; conditions: 30 μM, after supernatant collection (Figure 4C)
# Experimental: After removing the supernatants, 100 μL of 0.5 mg/mL MTT in RPMI was added to each well. Cells were incubated overnight at 37 °C, and formazan crystals were dissolved in 100 µL of 0.04 M HCl in isopropanol. Then, the absorbance was measured at 570 nm using an ELISA plate reader. Cell viability was calculated using the following formula: % viability: [(OD sample) × 100%]/(OD control). Nonstimulated cells represented 100% viability.
# [4] = system: TNF-α; assay: LPS-induced TNF-α production in peritoneal macrophages (ELISA); format: cell-based, C57BL/6 mice; conditions: for IC50: macrophages pretreated 1 h, supernatant 6 h, two independent experiments in triplicate, read-out: IC50 ± S.D. (μM) TNF-α
# Experimental: as §1, §2
# [5] = Mus musculus, Macrophage, macrophages pretreated 1 h, LPS 10 ng/mL, supernatant 6 h, two independent experiments in triplicate, read-out: IC50 ± S.D. (μM) IL-6
# [6] = Mus musculus, Peritoneal macrophage, converted from IL-6 IC50 of this work, used for 3D-QSAR, read-out: Experimental pIC50 (converted)
# [7] = dose-response, 10 µM (Figure 5B)
# [8] = Mus musculus, Macrophage, LPS 10 ng/mL
# [9] = dose-response, lowest concentration 1 µM (Figure 5B)
# [10] = dose-response, all concentrations tested (1, 3, 10, 30 μM) (Figure 5A)
# [11] = single concentration 30 μM, LPS 10 ng/mL, 6 h (Figure 4A)
molecule,measurement,setting,value
"C#CCOC(=O)CCC(=O)Oc1ccc(CCC(=O)/C=C(\O)CCc2ccc(OC(=O)CCC(=O)OCC#C)c(OC)c2)cc1OC [Compound 3, (Z)-O,O′-((3-Hydroxy-5-oxohept-3-ene-1,7-diyl)bis(2-methoxy-4,1-phenylene)) di(prop-2-yn-1-yl) Disuccinate]",inhibition of IL-6 production,"[1]; single concentration 30 μM, LPS 10 ng/mL, 6 h (Figure 4B)","All compounds, except compound 3, inhibited the production of IL-6"
same,reduction of PGE2 production,[2],significantly reduced; also recorded: highest activity
"COc1cc(CCC(=O)/C=C(\O)CCc2ccc(OC(=O)CCC(=O)OC3c4ccccc4-c4ccccc43)c(OC)c2)ccc1OC(=O)CCC(=O)OC1c2ccccc2-c2ccccc21 [Compound 4, (Z)-di(9H-Fluoren-9-yl)O,O′-((3-hydroxy-5-oxohept-3-ene-1,7-diyl)bis(2-methoxy-4,1-phenylene)) Disuccinate]",IC50,[1]; [5],4.28 ± 4.88 µM
same,IC50,[1]; [6],4.27 µM
same,inhibition of IL-6 production,[1]; [7],inhibited
"COc1cc(CCC(=O)/C=C(\O)CCc2ccc(OC(=O)CCC(=O)OC3Cc4ccccc4C3)c(OC)c2)ccc1OC(=O)CCC(=O)OC1Cc2ccccc2C1 [Compound 5, (Z)-bis(2,3-Dihydro-1H-inden-2-yl) O,O′-((3-hydroxy-5-oxohept-3-ene-1,7-diyl)bis(2-methoxy-4,1-phenylene)) Disuccinate]",IC50,[1]; [5],9.13 ± 5.9 µM
same,IC50,[1]; [6],9.12 µM
"COc1cc(CCC(=O)/C=C(\O)CCc2ccc(OC(=O)CCC(=O)OC(c3ccccc3)c3ccccc3)c(OC)c2)ccc1OC(=O)CCC(=O)OC(c1ccccc1)c1ccccc1 [Compound 6, (Z)-Dibenzhydryl O,O′-((3-hydroxy-5-oxohept-3-ene-1,7-diyl)bis(2-methoxy-4,1-phenylene)) Disuccinate]","cytotoxicity (cell viability, MTT)",[3],cytotoxic
"COc1cc(CC/C(O)=C/C(=O)CCc2ccc(OC(=O)CCC(=O)O[C@@H]3C[C@H](C)CC[C@H]3C(C)C)c(OC)c2)ccc1OC(=O)CCC(=O)O[C@@H]1C[C@@H](C)CC[C@@H]1C(C)C [Compound 7, O,O′-(((Z)-3-Hydroxy-5-oxohept-3-ene-1,7-diyl)bis(2-methoxy-4,1-phenylene)) bis((1R,2S,5R)-2-Isopropyl-5-methylcyclohexyl) Disuccinate]","cytotoxicity (cell viability, MTT)",[3],cytotoxic
"COc1cc(CCC(=O)/C=C(\O)CCc2ccc(OC(=O)CCC(=O)OC3CCCc4ccccc43)c(OC)c2)ccc1OC(=O)CCC(=O)OC1CCCc2ccccc21 (stereo not shown) [Compound 8, (Z)-O,O′-((3-Hydroxy-5-oxohept-3-ene-1,7-diyl)bis(2-methoxy-4,1-phenylene)) bis(1,2,3,4-Tetrahydronaphthalen-1-yl) Disuccinate]",IC50,[4]; [8],3.21 ± 4.52 µM
same,IC50,[1]; [5],3.48 ± 4.39 µM
same,IC50,[1]; [6],3.47 µM
same,inhibition of IL-6 production,[1]; [7],inhibited
"COc1cc(CCC(=O)/C=C(\O)CCc2ccc(OC(=O)CCC(=O)OCc3ccccc3)c(OC)c2)ccc1OC(=O)CCC(=O)OCc1ccccc1 [Compound 9, (Z)-Dibenzyl O,O′-((3-Hydroxy-5-oxohept-3-ene-1,7-diyl)bis(2-methoxy-4,1-phenylene)) Disuccinate]","cytotoxicity (cell viability, MTT)",[3],cytotoxic
"COc1cc(CCC(=O)/C=C(\O)CCc2ccc(OC(=O)CCC(=O)OC3CCCC3)c(OC)c2)ccc1OC(=O)CCC(=O)OC1CCCC1 [Compound 10, (Z)-Dicyclopentyl O,O′-((3-Hydroxy-5-oxohept-3-ene-1,7-diyl)bis(2-methoxy-4,1-phenylene)) Disuccinate]",IC50,[1]; [5],3.66 ± 4.21 µM
same,IC50,[1]; [6],3.63 µM
"COC(=O)CCC(=O)Oc1ccc(CCC(=O)/C=C(\O)CCc2ccc(OC(=O)CCC(=O)OC)c(OC)c2)cc1OC [Compound 11, (Z)-O,O′-((3-Hydroxy-5-oxohept-3-ene-1,7-diyl)bis(2-methoxy-4,1-phenylene)) dimethyl Disuccinate]",inhibition of TNF-α production,"[4]; dose-response, 3 µM (Figure 5A)",showed an effect only when used at a concentration of 3 µM
same,IC50,[1]; [5],0.17 ± 0.21 µM
same,IC50,[1]; [6],0.17 µM
same,inhibition of IL-6 production,[1]; [9],inhibited
same,reduction of PGE2 production,[2],significantly reduced; also recorded: highest activity
"C=CCOC(=O)CCC(=O)Oc1ccc(CCC(=O)/C=C(\O)CCc2ccc(OC(=O)CCC(=O)OCC=C)c(OC)c2)cc1OC [Compound 12, (Z)-Diallyl O,O′-((3-hydroxy-5-oxohept-3-ene-1,7-diyl)bis(2-methoxy-4,1-phenylene)) Disuccinate]",IC50,[4]; [8],0.7 ± 0.1 µM
same,inhibition of TNF-α production,[4]; [10],inhibited
same,inhibition of TNF-α production,[4]; [11],inhibited
same,IC50,[1]; [5],0.72 ± 0.38 µM
same,IC50,[1]; [6],0.724 µM
same,inhibition of IL-6 production,[1]; [9],inhibited
same,reduction of PGE2 production,[2],significantly reduced; also recorded: highest activity; also recorded: more biologically active than tetrahydrocurcumin
"Curcumin [Compound 1, reference compound]",IC50,"[1]; Table S1, compounds presented in the current work, read-out: IC50 ± S.D. (uM) IL-6",6.85 ± 2.5 µM
"Tetrahydrocurcumin [Compound 2, reference compound]",inhibition of TNF-α production,[4]; [10],inhibited
same,IC50,[4]; LPS 10 ng/mL,0.18 ± 0.18 µM
same,inhibition of TNF-α production,[4]; [11],inhibited
same,Experimental pIC50,"[1]; converted from IL-6 IC50 of this work, used for 3D-QSAR",6.77
same,inhibition of IL-6 production,[1]; [7],inhibited
same,inhibition of IL-6 production,[1]; [9],inhibited
same,IC50,"[1]; macrophages pretreated 1 h, LPS 10 ng/mL, supernatant 6 h, two independent experiments in triplicate, read-out: IC50 ± S.D. (μM) IL-6",0.17 ± 0.2 µM
same,reduction of PGE2 production,[2],but not PGE2 production
